Measurements: patent US20110288042A1, “STABLE HIGHLY PURE AZACITIDINE AND PREPARATION METHODS THEREFOR” (CHEMAGIS LTD., priority 2007, published 2011)

Experiments:
Format in all cases: physicochemical
[1] = Induced degradation of 5-azacytidine in liquid state (HPLC)
Protocol: (§1) The HPLC measurements were performed using a system equipped with an Inertsil C18 column (ODS-2, 5 microns, 250×4.6 mm (ODS-167)). Other parameters of the system were as follows: • Detection: UV detector operated on 242 nm • Column temperature: 20° C. • Run time: 45 minutes • Injection volume: 10 μl • Flow rate: 1.0 ml/minute • Sample set temperature: 5° C. • Sample concentration: about 1.65 mg/ml • Diluent: Mixture of 30% 10 mM ammonium acetate and 70% THF
(§2) Analyses were performed using the following mobile phase • Mobile Phase (Eluent) A: 10 mM ammonium acetate • Mobile Phase (Eluent) B: 60% 10 mM ammonium acetate, 40% MeOH
Acidic hydrolysis—blank preparation: Hydrochloric acid (5 ml, 0.01M HCl) was diluted to 10 ml with the diluent. […] An aliquot (5 ml) was diluted to 10 ml with the diluent. The blank preparation and sample preparation were injected to the HPLC system by using the chromatographic conditions as mentioned in example 8. • Basic hydrolysis—blank preparation: Sodium hydroxide (5 ml, 0.01M NaOH) was diluted to 10 ml with the diluent. […] An aliquot (5 ml) was diluted to 10 ml with diluent. […] An aliquot (5 ml) was diluted to 10 ml with the diluent. The blank and sample preparations were injected to the HPLC system using the chromatographic conditions as detailed in example 8. • Photolysis—blank preparation: The diluent (50 ml) was mixed under UV light for 48 hours. […] The blank preparation and sample preparation were injected to the HPLC system using the chromatographic conditions as mentioned in example 8.

[2] = Solution stability of 5-azacytidine in water; conditions: for Area (%) at RRT 1.00 (5-azacytidine) / Area (%) of peak at RRT 0.63 / Area (%) of peak at RRT 2.01 / Total impurities by % area / Area (%) of peak at RRT 1.70: water, about 1.65 mg/ml
Protocol: as §1, §2
Samples were withdrawn from the flask every consecutive hour and injected to the HPLC system.

[3] = Solution stability of 5-azacytidine in the HPLC diluent; conditions: HPLC diluent, about 1.65 mg/ml
Protocol: as §1, §2

[4] = Acidic: 0.01M HCl, room temperature, about 1 hour
[5] = Basic: 0.01M NaOH, room temperature, about 1 hour
[6] = Oxidation: 10% hydrogen peroxide solution, room temperature, about 1 hour
[7] = Photolysis: in the diluent, UV light 48 hours

In the case of `Nc1ncn([C@@H]2O[C@H](CO)[C@@H](O)[C@H]2O)c(=O)n1` [5-azacytidine, 4-amino-1-β-D-ribofuranosyl-1,3,5-s-triazine-2(1H)-one], the “Area (%) at RRT 1.00 (5-azacytidine)” value [1, 4] is reported as 71.96%, the “Area (%) of peak at RRT 0.33” value [1, 4] is reported as 0.17% and the “Area (%) of peak at RRT 0.63” value [1, 4] is reported as 21.1%. For the same compound, the “Area (%) of peak at RRT 1.18” value [1, 4] was 5.35%, the “Area (%) of peak at RRT 1.65” value [1, 4] was 0.14% and the “Area (%) of peak at RRT 2.01” value [1, 4] was 1.10%. For the same compound, the “Total impurities (%)” value [1, 4] was 28.04%, the “Area (%) at RRT 1.00 (5-azacytidine)” value [1, 5] was 3.38% and the “Area (%) of peak at RRT 0.33” value [1, 5] was 89.92%. For the same compound, the “Area (%) of peak at RRT 0.42” value [1, 5] was 3.97%, the “Total impurities (%)” value [1, 5] was 96.62% and the “Area (%) at RRT 1.00 (5-azacytidine)” value [1, 6] was 97.18%. The “Area (%) of peak at RRT 0.33” value [1, 6] was 0.84%, the “Area (%) of peak at RRT 0.42” value [1, 6] was 0.06% and the “Area (%) of peak at RRT 0.63” value [1, 6] was 0.23%. For the same compound, the “Area (%) of peak at RRT 2.01” value [1, 6] was 1.62%, the “Total impurities (%)” value [1, 6] was 2.82% and the “Area (%) at RRT 1.00 (5-azacytidine)” value [1, 7] was 61.64%. For the same compound, the “Area (%) of peak at RRT 0.33” value [1, 7] was 0.85%, the “Area (%) of peak at RRT 0.39” value [1, 7] was 0.11% and the “Area (%) of peak at RRT 0.42” value [1, 7] was 0.20%. The “Area (%) of peak at RRT 0.63” value [1, 7] was 35.24%, the “Area (%) of peak at RRT 1.18” value [1, 7] was 0.46% and the “Area (%) of peak at RRT 1.65” value [1, 7] was 0.39%. For the same compound, the “Area (%) of peak at RRT 2.01” value [1, 7] was 0.86%, the “Area (%) of peak at RRT 2.05” value [1, 7] was 0.17% and the “Total impurities (%)” value [1, 7] was 38.36%. The “Area (%) at RRT 1.00 (5-azacytidine)” value ([1]; Storage (reference sample)) was 96.72%, the “Area (%) of peak at RRT 0.63” value ([1]; Storage (reference sample)) was 1.55% and the “Area (%) of peak at RRT 2.01” value ([1]; Storage (reference sample)) was 1.37%. For the same compound, the “Area (%) of peak at RRT 2.05” value ([1]; Storage (reference sample)) was 0.24%, the “Total impurities (%)” value ([1]; Storage (reference sample)) was 3.28% and the “Degradation in liquid state (HPLC analysis)” value ([1]; liquid state, Table 9) was “significant degradation”. For the same compound, the “Solution stability in water” value ([2]; in water) was “unstable in water over prolonged time periods”, the “Area (%) at RRT 1.00 (5-azacytidine)” value ([2]; 0 hours) was 97.47% and the “Area (%) of peak at RRT 0.63” value ([2]; 0 hours) was 0.64%. The “Area (%) of peak at RRT 2.01” value ([2]; 0 hours) was 1.59%, the “Total impurities by % area” value ([2]; 0 hours) was 2.53% and the “Area (%) at RRT 1.00 (5-azacytidine)” value ([2]; 1 hour) was 95.97%. The “Area (%) of peak at RRT 0.63” value ([2]; 1 hour) was 2.16%, the “Area (%) of peak at RRT 2.01” value ([2]; 1 hour) was 1.57% and the “Total impurities by % area” value ([2]; 1 hour) was 4.03%. For the same compound, the “Area (%) at RRT 1.00 (5-azacytidine)” value ([2]; 4 hours) was 91.38%, the “Area (%) of peak at RRT 0.63” value ([2]; 4 hours) was 6.86% and the “Area (%) of peak at RRT 2.01” value ([2]; 4 hours) was 1.46%. For the same compound, the “Total impurities by % area” value ([2]; 4 hours) was 8.62%, the “Area (%) at RRT 1.00 (5-azacytidine)” value ([2]; 8 hours) was 83.61% and the “Area (%) of peak at RRT 0.63” value ([2]; 8 hours) was 14.68%. For the same compound, the “Area (%) of peak at RRT 1.70” value ([2]; 8 hours) was 0.23%, the “Area (%) of peak at RRT 2.01” value ([2]; 8 hours) was 1.36% and the “Total impurities by % area” value ([2]; 8 hours) was 16.39%. The “Area (%) at RRT 1.00 (5-azacytidine)” value ([2]; 12 hours) was 77.01%, the “Area (%) of peak at RRT 0.63” value ([2]; 12 hours) was 21.28% and the “Area (%) of peak at RRT 1.70” value ([2]; 12 hours) was 0.35%. For the same compound, the “Area (%) of peak at RRT 2.01” value ([2]; 12 hours) was 1.25%, the “Total impurities by % area” value ([2]; 12 hours) was 22.99% and the “Area (%) at RRT 1.00 (5-azacytidine)” value ([3]; 0 hours) was 96.72%. The “Area (%) of peak at RRT 0.63” value ([3]; 0 hours) was 1.55%, the “Area (%) of peak at RRT 2.01” value ([3]; 0 hours) was 1.37% and the “Area (%) of peak at RRT 2.05” value ([3]; 0 hours) was 0.24%. The “Total impurities by % area” value ([3]; 0 hours) was 3.28%, the “Area (%) at RRT 1.00 (5-azacytidine)” value ([3]; 4 hours) was 96.21% and the “Area (%) of peak at RRT 0.63” value ([3]; 4 hours) was 2.04%. For the same compound, the “Area (%) of peak at RRT 2.01” value ([3]; 4 hours) was 1.41%, the “Area (%) of peak at RRT 2.05” value ([3]; 4 hours) was 0.24% and the “Total impurities by % area” value ([3]; 4 hours) was 3.79%. The “Area (%) at RRT 1.00 (5-azacytidine)” value ([3]; 5 hours) was 96.11%, the “Area (%) of peak at RRT 0.63” value ([3]; 5 hours) was 2.16% and the “Area (%) of peak at RRT 2.01” value ([3]; 5 hours) was 1.37%. For the same compound, the “Area (%) of peak at RRT 2.05” value ([3]; 5 hours) was 0.24% and the “Total impurities by % area” value ([3]; 5 hours) was 3.89%.
